Measured values from patent US12678446B2 (PFIZER INC., priority 2020, dated 2026).
Where two headings read alike, the source gives them in different places.

What was measured:
[1] = system: RSV (RSV A2 ECACC, 0709161v); assay: RSV plaque reduction assay; type: cell-based, respiratory syncytial virus; settings: mean of at least two experiments unless noted (n = 1)
In short: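 Eight-point compound dilutions were premixed with RSV A2 (100 PFU/well) and applied to confluent Hep-G2 cells for 2 h, followed by a 2-day incubation at 37° C. under compound-containing 0.8% CMC overlay. EC50 comes from immunostained plaque counts relative to untreated virus wells, averaged over ≥2 runs.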

Hep-G2 cells = assay: cell toxicity CC50; type: cell-based; settings: mean of at least two experiments, read-out: Cell Cytotoxicity CC50
cell toxicity CC50 = type: cell-based; settings: human; Hep-G2 cells; mean of at least two experiments; read-out: Cell Cytotoxicity CC50
[2] = RSV A2 in Hep-G2 cells, read-out: RSV A2 Plaque EC50
[3] = read-out: RSV A2 Plaque EC50, RSV A2 in Hep-G2 cells
[4] = human respiratory syncytial virus, HepG2, read-out: RSV A2 Plaque EC50, RSV A2 in Hep-G2 cells

Compound | EC50 [1, 2] [nM] | CC50 (Hep-G2 cells) [nM] | EC50 [1, 3] [nM] | EC50 [1, 4] [nM] | CC50 (cell toxicity CC50) [nM]
CCNc1ccc(-c2nn3c(c2C(=O)N[C@H]2N=C(c4ccccc4)c4cccc(F)c4NC2=O)OCCC3)c(F)n1 [Example 3, 2-[6-(Ethylamino)-2-fluoropyridin-3-yl]-N-[(3S)-9-fluoro-2-oxo-5-phenyl-1,3-dihydro-1,4-benzodiazepin-3-yl]-6,7-dihydro-5H-pyrazolo[5,1-b][1,3]oxazine-3-carboxamide] | 20 | > 25000 | – | – | –
N-[(3S)-9-fluoro-2- oxo-5-phenyl-1,3- dihydro-1,4- benzodiazepin-3-yl]-2- (2-fluorophenyl)-6- (morpholin-4- ylmethyl)-6,7-dihydro- 5H-pyrazolo[5,1- b][1,3]oxazine-3- carboxamide [Example 173] | 91 | > 25000 | – | – | –
tert-butyl N-[3- [[(3S)-9-fluoro-2- oxo-5-phenyl-1,3- dihydro-1,4- benzodiazepin-3- yl]carbamoyl]-2-(2- fluorophenyl)-6,7- dihydro-5H- pyrazolo[5,1- b][1,3]oxazin-6-yl]- N-methylcarbamate [Example 107] | 93 | > 25000 | – | – | –
COCC1CCn2nc(-c3ccccc3F)c(C(=O)N[C@H]3N=C(c4ccccc4)c4cccc(F)c4NC3=O)c2O1 (single isomer, unassigned) [Example 191-2, (5S*)-N-[(3S)-9-fluoro-2-oxo-5-phenyl-1,3-dihydro-1,4-benzodiazepin-3-yl]-2-(2-fluorophenyl)-5-(methoxymethyl)-6,7-dihydro-5H-pyrazolo[5,1-b][1,3]oxazine-3-carboxamide] | – | > 25000 | 280 | – | –
O=C(N[C@H]1N=C(c2ccccc2)c2cccc(F)c2NC1=O)c1c(-c2ccccc2F)nn2c1OC(CO)CC2 (single isomer, unassigned) [Example 190-2, (5S*)-2-(2-Fluorophenyl)-5-(hydroxymethyl)-N-[(3S)-9-fluoro-2-oxo-5-phenyl-1,3-dihydro-1,4-benzodiazepin-3-yl]-6,7-dihydro-5H-pyrazolo [5,1-b][1,3]oxazine-3-carboxamide] | – | > 25000 | 154 | – | –
N-[(3S)-9-fluoro-2- oxo-5-phenyl-1,3- dihydro-1,4- benzodiazepin-3-yl]- 2-(2-fluorophenyl)- 6-(hydroxymethyl)- 6,7-dihydro-5H- pyrazolo[5,1- b][1,3]oxazine-3- carboxamide [Example 110] | 51 | > 25000 | – | – | –
(5R)-2-[1- (Difluoromethyl)pyra- zol-4-yl]-N-[(3S)-9- fluoro-2-oxo-5- phenyl-1,3-dihydro- 1,4-benzodiazepin-3- yl]-5-methyl-6,7- dihydro-5H- pyrazolo[5,1- b][1,3]oxazine-3- carboxamide [Example 120] | 97 | > 25000 | – | – | –
O=C(N[C@H]1N=C(c2ccccc2)c2cccc(F)c2NC1=O)c1c(-c2c(F)cccc2F)nn2c1OC(CO)CC2 (single isomer, unassigned) [Example 189-2, (5S*)-2-(2,6-Difluorophenyl)-N-[(3S)-9-fluoro-2-oxo-5-phenyl-1,3-dihydro-1,4-benzodiazepin-3-yl]-5-(hydroxymethyl)-6,7-dihydro-5H-pyrazolo[5,1-b][1,3]oxazine-3-carboxamide] | – | > 25000 | 72 | – | –
N-[(3S)-9-fluoro-2- oxo-5-phenyl-1,3- dihydro-1,4- benzodiazepin-3-yl]- 2-(2-fluorophenyl)- 6-(methoxymethyl)- 6,7-dihydro-5H- pyrazolo[5,1- b][1,3]oxazine-3- carboxmaide [Example 113] | 53 | > 19400 | – | – | –
O=C(N[C@H]1N=C(c2ccccc2)c2cccc(F)c2NC1=O)c1c(-c2ccccc2F)nn2c1OC(CO)CC2 (stereo partly drawn) [Example 123, N-[(3S)-9-Fluoro-2-oxo-5-phenyl-1,3-dihydro-1,4-benzodiazepin-3-yl]-2-(2-fluorophenyl)-5-(hydroxymethyl)-6,7-dihydro-5H-pyrazolo[5,1-b][1,3]oxazine-3-carboxamide] | 79 | > 25000 | – | – | –
(5R)-N-[(3S)-9- fluoro-2-oxo-5- phenyl-1,3-dihydro- 1,4-benzodiazepin-3- yl]-5-methyl-2-(1- propan-2-ylpyrazol- 4-yl)-6,7-dihydro- 5H-pyrazolo[5,1- b][1,3]oxazine-3- carobxamide [Example 112] | 50 | > 25000 | – | – | –
O=C(N[C@H]1N=C(c2ccccc2)c2cccc(F)c2NC1=O)c1c(-c2ccccc2F)nn2c1OCC(CO)C2 (single isomer, unassigned) [Example 110-2, (6S*)-N-[(3S)-9-fluoro-2-oxo-5-phenyl-1,3-dihydro-1,4-benzodiazepin-3-yl]-2-(2-fluorophenyl)-6-(hydroxymethyl)-6,7-dihydro-5H-pyrazolo[5,1-b][1,3]oxazine-3-carboxamide] | – | > 25000 | 61 | – | –
N-[(3S)-9-fluoro-2- oxo-5-phenyl-1,3- dihydro-1,4- benzodiazepin-3-yl]- 2-(2-fluorophenyl)- 6-(pyrrolidin-1- ylmethyl)-6,7- dihydro-5H- pyrazolo[5,1- b][1,3]oxazine-3- carboxamide [Example 182] | 78 | 20100 | – | – | –
(5R)-N-[(3S)-9- fluoro-2-oxo-5- phenyl-1,3-dihydro- 1,4-benzodiazepin-3- yl]-5-methyl-2-[1- (oxan-4-yl)pyrazol- 4-yl]-6,7-dihydro- 5H-pyrazolo[5,1- b][1,3]oxazine-3- carboxamide [Example 111] | 64 | > 25000 | – | – | –
2-(2,6-Difluorophenyl)-N-[(3S)-9-fluoro-2-oxo-5-phenyl-1,3-dihydro-1,4-benzodiazepin-3-yl]-6,7-dihydro-5H-pyrazolo[5,1-b][1,3]oxazine-3-carboxamide [Example 196] | 25 | > 25000 | – | – | –
(5R)-2-(2-Fluoro-6-methylpyridin-3-yl)-5-methyl-N-[(3S)-2-oxo-5-phenyl-1,3-dihydro-1,4-benzodiazepin-3-yl]-6,7-dihydro-5H-pyrazolo[5,1-b][3,1]oxazine-3-carboxamide [Example 72] | 100 | > 25000 | – | – | –
CCn1ccc(-c2nn3c(c2C(=O)N[C@H]2N=C(c4ccccc4)c4cccc(F)c4NC2=O)O[C@H](C)CC3)n1 [Example 68, (5R)-2-(1-Ethylpyrazol-3-yl)-N-[(3S)-9-fluoro-2-oxo-5-phenyl-1,3-dihydro-1,4-benzodiazepin-3-yl]-5-methyl-6,7-dihydro-5H-pyrazolo[5,1-b][1,3]oxazine-3-carboxamide] | – | – | – | 307 | > 25000
C[C@@H]1CCn2nc(-c3cn[nH]c3)c(C(=O)N[C@H]3N=C(c4ccccc4)c4cccc(F)c4NC3=O)c2O1 [Example 159, (5R)-N-[(3S)-9-fluoro-2-oxo-5-phenyl-1,3-dihydro-1,4-benzodiazepin-3-yl]-5-methyl-2-(1H-pyrazol-4-yl)-6,7-dihydro-5H-pyrazolo[5,1-b][1,3]oxazine-3-carboxamide] | – | – | – | 395 | > 25000
CC1(C)COc2c(C(=O)N[C@H]3N=C(c4ccccc4)c4cccc(F)c4NC3=O)c(-c3ccccc3F)nn2C1 [Example 41, N-[(3S)-9-fluoro-2-oxo-5-phenyl-1,3-dihydro-1,4-benzodiazepin-3-yl]-2-(2-fluorophenyl)-6,6-dimethyl-5,7-dihydropyrazolo[5,1-b][1,3]oxazine-3-carboxamide] | – | – | – | 29 | > 25000
CCc1ccc(-c2nn3c(c2C(=O)N[C@H]2N=C(c4ccccc4)c4cccc(F)c4NC2=O)OCC2(CCC2)C3)cn1 [Example 177, 2-(6-Ethylpyridin-3-yl)-N-[(3S)-9-fluoro-2-oxo-5-phenyl-1,3-dihydro-1,4-benzodiazepin-3-yl]spiro[5,7-dihydropyrazolo[5,1-b][1,3]oxazine-6,1′-cyclobutane]-3-carboxamide] | – | – | – | 125 | > 25000
O=C(N[C@H]1N=C(c2ccccc2)c2ccccc2NC1=O)c1c(-c2ccc(NC3CC3)nc2F)nn2c1OCCC2 [Example 44, 2-[6-(Cyclopropylamino)-2-fluoropyridin-3-yl]-N-[(3S)-2-oxo-5-phenyl-1,3-dihydro-1,4-benzodiazepin-3-yl]-6,7-dihydro-5H-pyrazolo[5,1-b][1,3]oxazine-3-carboxamide] | – | – | – | 55 | > 25000
CCc1ccc(-c2nn3c(c2C(=O)N[C@H]2N=C(c4ccccc4)c4cccc(F)c4NC2=O)O[C@@H](C)CC3)cn1 [Example 127, (5S)-2-(6-Ethylpyridin-3-yl)-N-[(3S)-9-fluoro-2-oxo-5-phenyl-1,3-dihydro-1,4-benzodiazepin-3-yl]-5-methyl-6,7-dihydro-5H-pyrazolo[5,1-b][1,3]oxazine-3-carboxamide] | – | – | – | 41 | > 25000
O=C(N[C@H]1N=C(c2ccccc2)c2cccc(F)c2NC1=O)c1c(-c2ccccc2F)nn2c1OC(CO)CC2 (single isomer, unassigned) [Example 190-1, (5R*)-N-[(3S)-9-Fluoro-2-oxo-5-phenyl-1,3-dihydro-1,4-benzodiazepin-3-yl]-2-(2-fluorophenyl)-5-(hydroxymethyl)-6,7-dihydro-5H-pyrazolo[5,1-b][1,3]oxazine-3-carboxamide] | – | – | – | 98 | > 25000
CC(C)n1cc(-c2nn3c(c2C(=O)N[C@H]2N=C(c4ccccc4)c4ccccc4NC2=O)OCCC3)cn1 [Example 103, N-[(3S)-2-oxo-5-phenyl-1,3-dihydro-1,4-benzodiazepin-3-yl]-2-(1-propan-2-ylpyrazol-4-yl)-6,7-dihydro-5H-pyrazolo[5,1-b][1,3]oxazine-3-carboxamide] | – | – | – | 132 | > 25000
